In general, melting point refers to the temperature of the solid-liquid transition. In turn, `CCCCC(=O)Nc1ccc(Oc2ncc(Cl)cn2)c(C)c1` had a melting point of 146 to 150 °C.

`O=C(NC(CO)c1ccccc1)c1ccccc1` (configuration not stated) displayed a melting point of 235 to 236 °C.

In the case of `Cn1c(=O)ccc2cc(COc3cc(F)cc(C4CCOCC4)c3)ccc21`, the melting point is 126 to 127 °C.

`CC(=O)Nc1ccc(Sc2c(NCC3CC3)cc(C(=O)O)cc2S(N)(=O)=O)cc1`: the melting point was 200 to 204 °C.

`CCOC(=O)c1cc([N+](=O)[O-])c(Cl)c(S(N)(=O)=O)c1` showed a melting point of 154 °C.

On to `CC(C)(C)c1cc(NN=Cc2ccc(C(=O)O)cc2)cc(C(C)(C)C)c1`, for which the melting point lay in the range of 208 to 213 °C.

The compound `O=C(Nc1c(Cl)cc(-c2n[nH]c(=O)o2)c2c1OCCO2)OCc1ccccc1` displayed a melting point of 230 °C.

On to `O=C(O)c1ccc2c(c1)C(=O)c1ccccc1S2(=O)=O`, for which the melting point was determined as 276 °C.

On to `CCOc1ccccc1C1(Cl)C(=O)Nc2ccc(Cl)cc21` (configuration not stated), for which the melting point came out at 198 °C.

On to `CCn1c(=O)n(/C(C)=C\SC)c2ccccc21`, for which the melting point was found to be 74 °C.

With `NC(=O)N1C(=O)C(C(=O)c2cccs2)c2cc(Cl)ncc21` (configuration not stated), the melting point was determined as 252 °C.

The compound `CCCCCCCCCCN1CCCN(O)C1=O` gave a melting point of 45 to 46 °C.

On to `N#Cc1c(-c2ccccc2)sc2c1CNCC2c1ccccc1` (configuration not stated), for which the melting point came out at 160 °C.

As for `CN(Cc1ccccc1)c1ccc(C(=O)c2ccccc2)cc1[N+](=O)[O-]`, the melting point turned out to be 99.5 °C.

`COc1ccc(S(=O)(=O)N2CCc3cccc(-c4ccc(CN(C)C)cc4)c32)cc1` returned a melting point of 165 to 166 °C.

On to `Nc1cc2c(cc1Cl)C(=O)C1(CC1)O2`, for which the melting point turned out to be 201 °C.

Take `CCOC(=O)C(C)(C)n1c(=O)[nH]c2ccc(F)cc2c1=O`: the melting point fell in the range of 167 to 169 °C.

In turn, `O=C(Nc1cc(C(F)(F)F)ccc1N1CCOCC1)c1ccncc1` came in with a melting point of 172 to 173 °C.

In the case of `COC(=O)NCOC(=O)N=CNc1c(Cc2cccnc2)c[nH]c1C(=O)OC`, the melting point lay within 160 to 162 °C.

With `Cc1cccc2nc3n(c(=O)c12)-c1ccc(F)cc1C3=O`, the melting point fell in the range of 300 to 301 °C.

Compound `O=C1c2cccc(NCCc3ccccc3)c2C(=O)c2cccc(NCCc3ccccc3)c21` gave a melting point of 205 to 207 °C.

For the compound `CC1(C)OCC(N(c2nc(Cl)nc(N(C3COC(C)(C)OC3)C3COC(C)(C)OC3)n2)C2COC(C)(C)OC2)CO1`, the melting point was in the range of 133 to 135 °C.

Compound `Clc1ncccc1OCC1CO1` (configuration not stated) registered a melting point of 132 °C.

The compound `Cc1ccc(Cn2nc(Br)c([N+](=O)[O-])c2NCc2ccccc2)cc1` came in with a melting point of 108 °C.

Compound `NC(=O)CNc1c(F)cc([N+](=O)[O-])cc1F` yielded a melting point of 160 to 162 °C.

As for `N#Cc1ccc([C@@H]2[C@@H]3C(=O)N(Cc4ccccc4)C(=O)[C@@H]3[C@H]3CCCN32)cc1` (racemic), the melting point fell in the range of 191 to 193 °C.

Consider `C#CCC(=C1NCCCS1)[N+](=O)[O-]`, for which the melting point fell in the range of 132 to 135 °C.

`CC(CCC(=O)O)C1CCC2C3C(O)C(F)C4CC(O)CCC4(C)C3CCC12C` (configuration not stated): the melting point lay in the range of 102 to 105 °C.

As for `CC(=O)O[C@H](CC(=O)c1ccccc1)C(=O)O`, the melting point lay within 118 to 121 °C.

As to `CN1C(=O)C2(CCNCC2)c2ccccc21`, the melting point is 146 to 151 °C.

With `Cc1cc(O)cc(Br)c1C`, the melting point lay in the range of 98 to 99 °C.

As to `COC(=O)Cn1c(C)cc(Cc2ccc(F)cc2)c(NC(=O)OCc2ccccc2)c1=O`, the melting point stood at 236 °C.

As for `COc1cc(NC2CC3CCC(C2)N3Cc2ccccc2)ccc1C(N)=O` (configuration not stated), the melting point fell in the range of 138 to 140 °C.

In turn, `CC1COc2c(F)c(F)cc3c2N1C(=O)C3=O` (configuration not stated) had a melting point of 169 to 171 °C.

Compound `O=C(O)CCCN(C(=O)c1ccc(Cl)cc1Cl)c1cccc2ccccc12` showed a melting point of 134 to 136 °C.

On to `C=CCCCCCCCCC(O)CNC(=O)N(C)O` (configuration not stated), for which the melting point lay within 105 to 106 °C.

In the case of `CN1CCC(c2c(O)cc(O)c3c(=O)cc(Oc4ccccc4)oc23)C(O)C1` (configuration not stated), the melting point was found to be 112 °C.

For the origin of these results see a melting point compilation (Tetko et al.; mined from patent text by program, amines drawn as free bases though some values may be those of a salt).
